Some test systems named below: A549; DU-145; HCC 2998; HCT-116; HCT-15; HT-29; Hs-578T; K562; LOX IMVI; MCF7; NCI/ADR-RES; OVCAR-3; PC-3; SF-268; SF-295; SR; T47D; UACC-257; MDA-N.
What all share (test): NCI tumour cell line growth inhibition, 48 h

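Each compound was tested at five concentrations against cells in 96-well plates for 48 hours. Abbreviation: GI50, concentration required for 50% inhibition of growth.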 The source made the active and inactive calls. No stated cut-off is given here; in the data, active = GI50 up to about 1.1 µM and inactive = higher. Where only a bound is given, the exact number is not on record here.

In the case of `CO[C@@]12C[C@H](CNC(=O)c3ccc[nH]3)O[C@@H]1NC(=O)N2`, the GI50 with A549 was > 100 µM (inactive); in the test on DU-145 it was > 100 µM (inactive); in the test on HCC 2998, > 100 µM (inactive); in the test on HCT-116, > 100 µM (inactive); in the test with HCT-15, > 100 µM; in the test with HT-29, > 100 µM (inactive). Also, the GI50 with Hs-578T, in the test on K562, in the test on LOX IMVI, in the test on MCF7, in the test with NCI/ADR-RES and in the test with OVCAR-3 was > 100 µM (inactive) throughout. In addition, the GI50 with PC-3, with SF-268, with SF-295, in the test on SR, in the test on T47D and with UACC-257 was > 100 µM (inactive) each time.

In the case of `CSc1ncc2c(n1)C(C#N)C1Sc3ccccc3N1C2=O` (centres undefined), the GI50 in the test on A549 was > 100 µM (inactive); in the test with DU-145, > 100 µM (inactive); in the test on HCT-116, > 100 µM (inactive); in the test on HCT-15, > 100 µM; with HT-29, > 100 µM (inactive); with LOX IMVI, > 100 µM (inactive). Further, the GI50 with MDA-N is > 100 µM (inactive); in the test with NCI/ADR-RES, > 100 µM (inactive); with OVCAR-3 it was > 100 µM (inactive); with SF-268, 44.9 µM (inactive); with SF-295, 36 µM (inactive); in the test with T47D it was > 100 µM (inactive). The GI50 in the test on UACC-257 was > 100 µM (inactive).

As for `BrC1=C(Br)C2(SCCS2)[C@H]2C[C@@H]1c1ccccc12`, the GI50 was > 54.1 µM (inactive) in the test with A549; 47.3 µM (inactive) in the test on DU-145; 21.3 µM (inactive) in the test on HCC 2998; 13.1 µM (inactive) in the test with HCT-116; 17.8 µM in the test with HCT-15; 10.2 µM (inactive) in the test with HT-29. For the same compound, the GI50 in the test on K562 is 9.12 µM (inactive); in the test on LOX IMVI, 43.7 µM (inactive); in the test on MCF7 it was 22.3 µM (inactive); in the test with MDA-N, 4.07 µM (inactive); in the test with NCI/ADR-RES, 61.5 µM (inactive); with OVCAR-3 it was > 100 µM (inactive). For the same compound, the GI50 in the test on PC-3 is 95.5 µM (inactive); in the test with SF-268, 63.7 µM (inactive); in the test with SF-295, > 100 µM (inactive); in the test on SR, 9.4 µM (inactive); in the test with T47D it was 24.6 µM (inactive); with UACC-257, 52.6 µM (inactive).

`Nc1c2ccccc2nc2c1ccc1ncccc12`: the GI50 is 21.9 µM (inactive) in the test on A549; 28.2 µM (inactive) in the test on DU-145; 8.99 µM (inactive) in the test on HCC 2998; 5.22 µM (inactive) in the test with HCT-116; 14.2 µM in the test on HCT-15; 11.5 µM (inactive) in the test with HT-29. The GI50 in the test with K562 is 12.5 µM (inactive); in the test on LOX IMVI, 6.03 µM (inactive); in the test on MCF7, 6.46 µM (inactive); with MDA-N it was 28.1 µM (inactive); with NCI/ADR-RES it was 19.9 µM (inactive); in the test on OVCAR-3, 24 µM (inactive). Besides, the GI50 was 16.3 µM (inactive) in the test on PC-3; 21.8 µM (inactive) with SF-295; 12.2 µM (inactive) in the test on SR; 27.5 µM (inactive) in the test on T47D; 28.8 µM (inactive) in the test on UACC-257.

For the compound `O=C(O)c1cc(Cl)cc2c1NC1(N2)C(=O)Nc2ccccc21` (centres undefined), the GI50 in the test on A549 was > 100 µM (inactive); in the test on DU-145, > 100 µM (inactive); in the test with HCC 2998 it was > 100 µM (inactive); in the test with HCT-116 it was 56.4 µM (inactive); in the test with HCT-15 it was 45.4 µM; in the test with HT-29, 78.5 µM (inactive). The GI50 is > 100 µM (inactive) with K562; 49 µM (inactive) in the test with LOX IMVI; > 100 µM (inactive) with MCF7; > 100 µM (inactive) with MDA-N; > 100 µM (inactive) in the test with NCI/ADR-RES; > 100 µM (inactive) in the test on OVCAR-3. Further, the GI50 in the test with PC-3 is > 100 µM (inactive); with SF-268, 62.1 µM (inactive); in the test on SF-295, > 100 µM (inactive); with SR, 65.8 µM (inactive); with T47D, > 100 µM (inactive); in the test on UACC-257 it was > 100 µM (inactive).

Regarding `CS/C(=N\Nc1cnc2ccccc2n1)NS(=O)(=O)c1cc(C)c(Cl)cc1Cl`, the GI50 in the test with A549 is > 100 µM (inactive); in the test with DU-145 it was > 100 µM (inactive); with HCC 2998, > 100 µM (inactive); in the test with HCT-116, > 100 µM (inactive); in the test on HCT-15, > 100 µM; in the test on HT-29 it was > 100 µM (inactive). The GI50 with Hs-578T was > 100 µM (inactive); in the test with K562, > 100 µM (inactive); in the test with LOX IMVI, 61.1 µM (inactive); in the test on MCF7, 65.6 µM (inactive); with NCI/ADR-RES it was 84.7 µM (inactive); in the test with OVCAR-3, 59.6 µM (inactive). The GI50 with PC-3, in the test with SF-268, in the test with SF-295, in the test with T47D and with UACC-257 was > 100 µM (inactive) in each case.

In the case of `CCCCCCCCCCCCCCCCCCNC(=S)N/C=C1\C(=O)Nc2ccccc2C1=O`, the GI50 in the test with A549 was 21.1 µM (inactive); in the test on DU-145, 16 µM (inactive); in the test with HCC 2998, 16.3 µM (inactive); with HCT-116, 15.7 µM (inactive); in the test with HCT-15, 15.6 µM; with HT-29 it was 16.9 µM (inactive). Moreover, the GI50 with LOX IMVI was 16.3 µM (inactive); in the test on MCF7, 20.2 µM (inactive); in the test on MDA-N, 17.4 µM (inactive); with NCI/ADR-RES, 18.4 µM (inactive); in the test with OVCAR-3 it was 18.5 µM (inactive); in the test with SF-268 it was 13.6 µM (inactive). Also, the GI50 with SF-295 is 21.4 µM (inactive); in the test on T47D, 24.7 µM (inactive); with UACC-257, 17.1 µM (inactive).

For `Cc1cc2c(cc1Cl)SC(c1ccccc1O)NS2(=O)=O` (centres undefined), the GI50 was > 100 µM (inactive) in the test with A549; 33.9 µM (inactive) with DU-145; 31 µM (inactive) in the test on HCC 2998; 27.5 µM (inactive) with HCT-116; 19.4 µM with HCT-15; 45.4 µM (inactive) in the test on HT-29. Moreover, the GI50 was 38.5 µM (inactive) in the test with Hs-578T; 27.7 µM (inactive) with K562; 43.8 µM (inactive) with LOX IMVI; 36.9 µM (inactive) in the test on MCF7; 30.7 µM (inactive) in the test with NCI/ADR-RES; 21.7 µM (inactive) in the test on OVCAR-3. For the same compound, the GI50 in the test with PC-3 is 68.5 µM (inactive); in the test on SF-268, 91.4 µM (inactive); in the test with SF-295 it was > 100 µM (inactive); with SR, 16.4 µM (inactive); in the test with T47D, 6.95 µM (inactive); in the test with UACC-257, 53 µM (inactive).

For `Brc1ccc2[nH]cc([C@H]3CN[C@@H](c4c[nH]c5ccc(Br)cc45)CN3)c2c1`, the GI50 with A549 was 2.52 µM (inactive); in the test on DU-145, 2.23 µM (inactive); with HCC 2998, 1.69 µM (inactive); in the test on HCT-116 it was 2.02 µM (inactive); in the test on HCT-15, 2.04 µM; in the test with HT-29, 1.97 µM (inactive). In addition, the GI50 in the test on Hs-578T is 4.31 µM (inactive); with K562, 1.99 µM (inactive); in the test on LOX IMVI it was 1.44 µM (inactive); in the test with MCF7, 1.58 µM (inactive); in the test with NCI/ADR-RES it was 1.93 µM (inactive); with OVCAR-3, 1.79 µM (inactive). The GI50 with PC-3 was 1.88 µM (inactive); in the test with SF-268, 2.65 µM (inactive); in the test on SF-295, 4.97 µM (inactive); in the test with SR, 1.92 µM (inactive); with T47D, 2.66 µM (inactive); in the test on UACC-257, 3.64 µM (inactive).

For the compound `CC(C)(C)OC(=O)[C@@H]1ON2O[C@H](OC3CCCC3(c3ccccc3)c3ccccc3)C[C@H]3OC(=O)[C@@H]1[C@H]32` (some centres undefined), the GI50 is 83.2 µM (inactive) in the test with A549; 81.8 µM (inactive) in the test on DU-145; 32 µM (inactive) in the test with HCT-116; 31.8 µM in the test with HCT-15; 38.8 µM (inactive) in the test on HT-29; 36.4 µM (inactive) in the test on K562. Besides, the GI50 with LOX IMVI is 31.4 µM (inactive); with MCF7, 70 µM (inactive); with MDA-N, 61.7 µM (inactive); in the test on NCI/ADR-RES it was 33.9 µM (inactive); in the test with OVCAR-3, 16.1 µM (inactive); in the test with PC-3, 26.8 µM (inactive). The GI50 in the test on SF-268 was 34.4 µM (inactive); with SF-295, > 100 µM (inactive); in the test on SR, > 100 µM (inactive); in the test on T47D, 54 µM (inactive); in the test on UACC-257 it was 71.3 µM (inactive).

Turning to `CO/C(=N\N=C\c1ccc(OC)cc1OC)c1ccncc1`, the GI50 was > 10 µM (inactive) in the test with A549; > 10 µM (inactive) in the test on HCC 2998; > 10 µM (inactive) in the test on HCT-116; > 10 µM in the test on HCT-15; > 10 µM (inactive) with K562; > 10 µM (inactive) in the test on LOX IMVI. Moreover, the GI50 in the test on MCF7, in the test on NCI/ADR-RES, in the test on PC-3, in the test on SF-268, in the test with SF-295 and in the test with SR was > 10 µM (inactive) in each case. For the same compound, in the test with T47D, the GI50 was > 10 µM (inactive).

As for `c1cn[nH]c1` [PYRAZOLE], the GI50 with A549 was > 10 µM (inactive); in the test on HCC 2998, > 10 µM (inactive); with HCT-116, > 10 µM (inactive); in the test with HCT-15, > 10 µM; with HT-29, > 10 µM (inactive); in the test on Hs-578T it was > 10 µM (inactive). The GI50 with K562, in the test on LOX IMVI, in the test with MCF7, in the test on MDA-N, in the test with NCI/ADR-RES and in the test on OVCAR-3 was > 10 µM (inactive) each time. For the same compound, the GI50 with PC-3, in the test with SF-268, with SF-295, with SR and in the test with T47D was > 10 µM (inactive) throughout.

Source of the values: ChEMBL document CHEMBL1201862, “PubChem BioAssay data set” (2004).
